The NIST ThermoML archive (doi:10.1021/je700344f)
Several values for one entry are separate records, joined by “and”; a condition that tells them apart may be missing. Equal entries are not always repeated. ± gives the expanded uncertainty stated by the source.

Settings: 101.33 kPa, Liquid

Structure (SMILES)	mass density (283.15 K)	viscosity (283.15 K)	mass density (293.15 K)	viscosity (293.15 K)	mass density (303.15 K)	viscosity (303.15 K)	mass density (313.15 K)	viscosity (313.15 K)	mass density (323.15 K)	viscosity (323.15 K)	mass density (333.15 K)	viscosity (333.15 K)	mass density (343.15 K)	viscosity (343.15 K)
CCCCCCO [hexan-1-ol]	828.23 ± 6.5 kg/m3	7.459 ± 0.44 mPa·s	821.01 ± 6.7 kg/m3	5.335 ± 0.34 mPa·s	815.92 ± 6.8 kg/m3 and 813.96 ± 6.9 kg/m3	3.763 ± 0.25 mPa·s and 3.917 ± 0.26 mPa·s	810.91 ± 7 kg/m3	2.937 ± 0.2 mPa·s	806.84 ± 7 kg/m3 and 804.22 ± 7.1 kg/m3	2.172 ± 0.15 mPa·s and 2.276 ± 0.16 mPa·s	802.91 ± 7.2 kg/m3	1.654 ± 0.12 mPa·s	798.64 ± 7.3 kg/m3	1.411 ± 0.1 mPa·s
C1COCCO1 [1,4-dioxane]	1046.91 ± 3.4 kg/m3	1.59 ± 0.11 mPa·s	1035.03 ± 3.1 kg/m3	1.312 ± 0.094 mPa·s	1022.71 ± 2.8 kg/m3	1.102 ± 0.081 mPa·s	1011.32 ± 2.5 kg/m3	0.946 ± 0.071 mPa·s	999.12 ± 2.2 kg/m3	0.825 ± 0.063 mPa·s	987.92 ± 2.5 kg/m3	0.721 ± 0.056 mPa·s	976.61 ± 2.8 kg/m3	0.64 ± 0.051 mPa·s
CN(C)c1ccccc1 [N,N-dimethylaniline]	969.97 ± 2.9 kg/m3	1.696 ± 0.12 mPa·s	963.01 ± 3.1 kg/m3	1.439 ± 0.1 mPa·s	956.21 ± 3.3 kg/m3	1.17 ± 0.085 mPa·s	948.34 ± 3.5 kg/m3	0.981 ± 0.073 mPa·s	940.24 ± 3.7 kg/m3	0.928 ± 0.07 mPa·s	932.71 ± 3.9 kg/m3	0.911 ± 0.068 mPa·s	924.08 ± 4.1 kg/m3	0.841 ± 0.064 mPa·s
